Where a name gives a salt, the structure may show the parent alone.
How the values were obtained:
Met kinase [1] = molecular target: T1, Met kinase (Homo sapiens, UniProt P08581); experiment: Met kinase inhibition, cell assay; format: cell-based
Met kinase [2] = molecular target: T1, Met kinase; experiment: Met kinase inhibition, enzyme assay (flashplate method); format: biochemical; parameters: 6His (N); purchased Upstate 14-526; host or cells: Sf21 insect cells (S. frugiperda), baculovirus
Text: According to the manufacturer's data (Met, active, upstate, catalogue No. 14-526), Met kinase is expressed for the purposes of protein production in insect cells (Sf21; S. frugiperda) and subsequent affinity-chromatographic purification as “N-terminal 6His-tagged” recombinant human protein in a baculovirus expression vector.
The test plates used are 96-well Flashplate® microtitre plates from Perkin Elmer (Cat. No. SMP200). The components of the kinase reaction described below are pipetted into the assay plate. The Met kinase and the substrate poly Ala-Glu-Lys-Tyr, (pAGLT, 6:2:5:1), are incubated for 3 hrs at room temperature with radioactively labelled ^33P-ATP in the presence and absence of test substances in a total volume of 100 μl. The reaction is terminated using 150 μl of a 60 mM EDTA solution. After incubation for a further 30 min at room temperature, the supernatants are filtered off with suction, and the wells are washed three times with 200 μl of 0.9% NaCl solution each time. The measurement of the bound radioactivity is carried out by means of a scintillation measuring instrument (Topcount NXT, Perkin-Elmer).
The full value used is the inhibitor-free kinase reaction. This should be approximately in the range 6000-9000 cpm. The pharmacological zero value used is staurosporin in a final concentration of 0.1 mM. The inhibitory values (IC50) are determined using the RS1_MTS program.
Kinase Reaction Conditions Per Well:
10 μl of substance to be tested in assay buffer with 10% of DMSO
10 μl of ATP (final concentration 1 μM cold, 0.35 μCi of ^33P-ATP)
50 μl of Met kinase/substrate mixture in assay buffer; • (10 ng of enzyme/well, 50 ng of pAGLT/well) • Solutions Used: • Assay buffer: • 50 mM HEPES • 3 mM magnesium chloride • 3 μM sodium orthovanadate • 3 mM manganese(II) chloride • 1 mM dithiothreitol (DTT) • pH=7.5 (to be set using sodium hydroxide) • Stop Solution: • 60 mM Titriplex III (EDTA) • ^33P-ATP: Perkin-Elmer; • Met kinase: Upstate, Cat. No. 14-526, Stock 1 μg/10 μl; spec. activity 954 U/mg; • Poly-Ala-Glu-Lys-Tyr, 6:2:5:1: Sigma Cat. No. P1152

TPR-Met/NIH3T3 cells = experiment: In-vivo test, TPR-Met/NIH3T3 tumor model in mice; settings: female Balb/C mice, s.c. TPR-Met/NIH3T3 tumors, 200 mg/kg daily by gastric tube, 9 days, tumor volume
Method: Experimental Procedure: Female Balb/C mice (breeder: Charles River Wiga) were 5 weeks old on arrival. They were acclimatized to our keeping conditions for 7 days. Each mouse was subsequently injected subcutaneously in the pelvic area with 4 million TPR-Met/NIH3T3 cells in 100 μl of PBS (without Ca++ and Mg++). […] 100 μl of vehicle (0.25% methylcellulose/100 mM acetate buffer, pH 5.5) were administered daily to the control group, and 200 mg/kg of “A56” or “A91” dissolved in the vehicle (volume likewise 100 μl/animal) were administered daily to the treatment groups, in each case by gastric tube.
Measurement of the tumor volume: The length (L) and breadth (B) were measured using a Vernier calliper, and the tumor volume was calculated from the formula L×B×B/2.
Keeping conditions: 4 or 5 animals per cage, feeding with commercial mouse food (Sniff).

T1 sequence (P08581 25-1390): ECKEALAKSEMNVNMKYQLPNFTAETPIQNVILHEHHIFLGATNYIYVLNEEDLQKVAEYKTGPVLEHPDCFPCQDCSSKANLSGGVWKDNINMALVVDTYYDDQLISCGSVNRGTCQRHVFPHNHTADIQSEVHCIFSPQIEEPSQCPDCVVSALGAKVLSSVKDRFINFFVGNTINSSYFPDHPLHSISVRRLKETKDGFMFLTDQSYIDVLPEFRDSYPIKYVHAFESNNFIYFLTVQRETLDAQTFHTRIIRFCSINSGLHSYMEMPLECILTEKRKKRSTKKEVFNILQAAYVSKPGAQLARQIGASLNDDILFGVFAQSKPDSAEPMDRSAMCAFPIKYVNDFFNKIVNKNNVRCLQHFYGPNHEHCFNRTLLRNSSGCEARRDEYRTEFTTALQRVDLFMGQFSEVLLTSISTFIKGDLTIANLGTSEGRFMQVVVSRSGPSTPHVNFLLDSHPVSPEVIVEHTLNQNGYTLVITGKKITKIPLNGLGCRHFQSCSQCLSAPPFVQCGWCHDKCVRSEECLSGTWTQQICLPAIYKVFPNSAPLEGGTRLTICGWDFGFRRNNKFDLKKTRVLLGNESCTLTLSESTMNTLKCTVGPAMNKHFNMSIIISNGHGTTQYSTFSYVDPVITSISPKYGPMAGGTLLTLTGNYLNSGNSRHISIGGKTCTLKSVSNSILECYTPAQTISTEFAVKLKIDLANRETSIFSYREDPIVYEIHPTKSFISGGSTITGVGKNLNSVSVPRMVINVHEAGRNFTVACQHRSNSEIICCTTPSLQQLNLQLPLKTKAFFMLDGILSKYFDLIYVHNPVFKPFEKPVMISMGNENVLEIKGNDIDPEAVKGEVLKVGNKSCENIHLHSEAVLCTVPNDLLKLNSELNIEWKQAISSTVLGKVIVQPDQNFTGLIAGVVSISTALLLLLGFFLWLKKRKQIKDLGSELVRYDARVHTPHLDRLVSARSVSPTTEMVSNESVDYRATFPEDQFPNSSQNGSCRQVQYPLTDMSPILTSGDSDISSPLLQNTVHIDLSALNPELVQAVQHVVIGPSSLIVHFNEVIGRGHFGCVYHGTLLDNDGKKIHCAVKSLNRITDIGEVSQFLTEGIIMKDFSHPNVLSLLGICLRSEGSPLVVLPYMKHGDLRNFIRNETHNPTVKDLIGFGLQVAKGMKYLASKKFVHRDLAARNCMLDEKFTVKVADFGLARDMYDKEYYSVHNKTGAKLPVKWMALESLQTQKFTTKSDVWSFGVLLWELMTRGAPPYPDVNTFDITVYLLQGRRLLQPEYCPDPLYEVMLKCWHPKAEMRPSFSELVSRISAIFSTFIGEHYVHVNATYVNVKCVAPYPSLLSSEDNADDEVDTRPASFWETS

Row | Structure (SMILES) | IC50 (Met kinase [1]) [nM] | IC50 (Met kinase [2]) [nM] | antitumoral action (TPR-Met/NIH3T3 cells)
1 | CC(C)c1ccc(=O)n(Cc2cccc(-c3ncc(OCCCN(C)C)cn3)c2)n1 [Compound A10, 2-{3-[5-(3-dimethylaminopropoxy)pyrimidin-2-yl]benzyl}-6-isopropyl-2H-pyridazin-3-one formate] | 100 to 10000 | 1 to 100 | –
2 | Cc1ccc(=O)n(Cc2cccc(-c3ncc(-c4cnn(C5CCNCC5)c4)cn3)c2)n1 [Compound A6, 6-methyl-2-{3-[5-(1-piperidin-4-yl-1H-pyrazol-4-yl)pyrimidin-2-yl]benzl}-2H-pyridazin-3-one] | 100 to 10000 | 1 to 100 | –
3 | CC(C)c1ccc(=O)n(Cc2cccc(-c3ncc(-c4cnn(CCN5CCOCC5)c4)cn3)c2)n1 [Compound A13, 6-isopropyl-2-(3-{5-[1-(2-morpholin-4-ylethyl)-1H-pyrazol-4-yl]pyrimidin-2-yl}benzyl)-2H-pyridazin-3-one] | 100 to 10000 | 1 to 100 | –
4 | O=c1ccc(C2CC2)nn1Cc1cccc(-c2ncc(-c3cnn(CCN4CCCC4)c3)cn2)c1 [Compound A2, 6-cyclopropyl-2-(3-{5-[1-(2-pyrrolidin-1-ylethyl)-1H-pyrazol-4-yl]pyrimidin-2-yl}benzyl)-2H-pyridazin-3-one] | 1 to 100 | 1 to 100 | –
5 | O=c1ccc(C2CCC2)nn1Cc1cccc(-c2ncc(-c3cnn(CCN4CCCC4)c3)cn2)c1 [Compound A15, 6-cyclobutyl-2-(3-{5-[1-(2-pyrrolidin-1-ylethyl)-1H-pyrazol-4-yl]pyrimidin-2-yl}benzyl)-2H-pyridazin-3-one] | 1 to 100 | 1 to 100 | –
6 | O=c1ccc(C2CC2)nn1Cc1cccc(-c2ncc(-c3cnn(CCN4CCOCC4)c3)cn2)c1 [Compound A3, 6-cyclopropyl-2-(3-{5-[1-(2-morpholin-4-ylethyl)-1H-pyrazol-4-yl]-pyrimidin-2-yl}benzyl)-2H-pyridazin-3-one] | 1 to 100 | 1 to 100 | –
7 | CN1CCC(Oc2cnc(-c3cccc(Cn4nc(C5CC5)ccc4=O)c3)nc2)CC1 [Compound A9, 6-cyclopropyl-2-{3-[5-(1-methylpiperidin-4-yloxy)pyrimidin-2-yl]benzyl}-2H-pyridazin-3-one] | 1 to 100 | 1 to 100 | –
8 | O=c1ccc(C2CC2)nn1Cc1cccc(-c2ncc(-c3cnn(C4CCNCC4)c3)cn2)c1 [Compound A5, 6-cyclopropyl-2-{3-[5-(1-piperidin-4-yl-1H-pyrazol-4-yl)-pyrimidin-2-yl]benzyl}-2H-pyridazin-3-one] | 1 to 100 | 1 to 100 | –
9 | CN1CCN(c2cnc(-c3cccc(Cn4nc(C5CC5)ccc4=O)c3)nc2)CC1 [Compound A12, 6-cyclopropyl-2-{3-[5-(4-methylpiperazin-1-yl)pyrimidin-2-yl]benzyl}-2H-pyridazin-3-one] | 1 to 100 | 1 to 100 | –
10 | Nc1cnc(-c2cccc(Cn3nc(C4CC4)ccc3=O)c2)nc1 [Compound A18, 2-[3-(5-aminopyrimidin-2-yl)benzyl]-6-cyclopropyl-2H-pyridazin-3-one] | 100 to 10000 | 100 to 10000 | significant antitumoral action
11 | CN(C)CCCOc1cnc(-c2cccc(Cn3nc(C4CC4)ccc3=O)c2)nc1 [Compound A8, 6-cyclopropyl-2-{3-[5-(3-dimethylaminopropoxy)pyrimidin-2-yl]benzyl}-2H-pyridazin-3-one] | 1 to 100 | 1 to 100 | –
12 | O=c1cccnn1Cc1cccc(-c2ncc(-c3cnn(CCN4CCOCC4)c3)cn2)c1 [Compound A14, 2-(3-{5-[1-(2-morpholin-4-ylethyl)-1H-pyrazol-4-yl]pyrimidin-2-yl}benzyl)-2H-pyridazin-3-one] | 100 to 10000 | 1 to 100 | –
13 | Cc1cnc(-c2cccc(Cn3nc(C4CC4)ccc3=O)c2)nc1 [Compound A4, 6-cyclopropyl-2-[3-(5-methylpyrimidin-2-yl)benzyl]-2H-pyridazin-3-one] | 100 to 10000 | 1 to 100 | –
14 | Cc1nc(-c2cccc(Cn3nc(C4CC4)ccc3=O)c2)no1 [Compound A7, 6-cyclopropyl-2-[3-(5-methyl-1,2,4-oxadiazol-3-yl)benzyl]-2H-pyridazin-3-one] | > 10000 | 100 to 10000 | –
15 | O=c1ccc(C2CC2)nn1Cc1cccc(-c2ncc(OC3CCNCC3)cn2)c1 [Compound A11, 6-cyclopropyl-2-{3-[5-(piperidin-4-yloxy)pyrimidin-2-yl]benzyl}-2H-pyridazin-3-one] | 100 to 10000 | 1 to 100 | –
16 | O=c1ccc(C2CC2)nn1Cc1cccc(-c2ncc(Br)cn2)c1 [Compound A1, 2-[3-(5-bromopyrimidin-2-yl)benzyl]-6-cyclopropyl-2H-pyridazin-3-one] | 100 to 10000 | 1 to 100 | –
